Measured values as given in patent US8841268B2, “Method and kit for detection of cancer, and therapeutic agent for cancer” (Sapporo Medical University, priority 2008, dated 2014).
Read-outs that look alike come from different tables or passages of the source.

Columns and labels:
Format in all cases: cell-based, human
HCT116 cell [1] = test: Expression analysis of miRNAs (TaqMan miRNA Assay, real-time PCR) in HCT116 cell; conditions: DAC 2 μM, 72 hours
[2] = test system: 9 colorectal cancer cell lines (CaCO2, Colo320, DLD1, HCT116, HT29, LoVo, RKO, SW48 and SW480); test: Expression analysis of miR-34b and miR-34c in colorectal cancer cell lines with DAC treatment; conditions: all 9 colorectal cancer cell lines
Excerpt: DKO2 cell was used as a control, and U6 snRNA was used as an internal control.
The expression level of miRNA was converted to the ratio of the expression level of each miRNA to that of U6 snRNA (i.e., the expression level of each miRNA/the expression level of U6 snRNA) and analyzed.

HCT116 cell [3] = test: miR-34b/c expression in HCT116 cell treated with DAC and/or ADR; conditions: DAC 2 μM, 72 hours, ADR 0.5 μg/ml, 24 hours, FIG. 5A
Excerpt: U6 snRNA was used as an internal control.

HCT116 cell [4] = test: Microarray analysis of gene expression in HCT116 cell; conditions: miRNA by electroporation, RNA after 48 hours, vs control miRNA, DAC 2 μM, 72 hours vs mock, FIG. 13A
Protocol: Firstly, in order to search for a gene whose expression is decreased by miR-34b/c expression, control miRNA (control miRNA (Ambion)), miR-34b (miR-34b precursor (Ambion)) and miR-34c (miR-34c precursor (Ambion)) were introduced into a HCT116 cell by electroporation, and after 48 hours RNA was extracted and subjected to microarray analysis.

[5] = test system: MET (hepatocyte growth factor receptor) gene; test: Real-time RT-PCR (TaqMan Gene Expression Assay) of MET gene in HCT116 cells; conditions: miRNA by electroporation, RNA after 48 hours, vs control miRNA, DAC 2 μM, 72 hours vs mock, FIG. 13B
[6] = test system: (v-myb myeloblastosis viral oncogene homolog) gene; conditions: HCT116 cells, DAC 2 μM, 72 hours vs mock, FIG. 13B
[7] = test system: CDK4 (cyclin-dependent kinase 4) gene; test: Real-time RT-PCR (TaqMan Gene Expression Assay) of CDK4 gene in HCT116 cells; conditions: miRNA by electroporation, RNA after 48 hours, vs control miRNA, DAC 2 μM, 72 hours vs mock, FIG. 13B
CCNE2 (Cyclin E2) gene = test: Real-time RT-PCR (TaqMan Gene Expression Assay) of CCNE2 gene in HCT116 cells; conditions: miRNA by electroporation, RNA after 48 hours, vs control miRNA, DAC 2 μM, 72 hours vs mock, FIG. 13B
[8] = test system: SFRS2 (splicing factor, arginine/serine-rich 2) gene; test: Real-time RT-PCR (TaqMan Gene Expression Assay) of SFRS2 gene in HCT116 cells; conditions: miRNA by electroporation, RNA after 48 hours, vs control miRNA, DAC 2 μM, 72 hours vs mock, FIG. 13B
MET = test: Western-blot analysis of MET protein in HCT116 cell; conditions: anti-MET antibody, vs control miRNA / mock, FIG. 13C
Excerpt: (§1) Furthermore, for foregoing genes, changes in protein level were verified by western-blot analysis using an anti-MET antibody (MET), anti-CDK4 antibody (CDK4), anti-SFRS2 antibody (SFRS2), and anti-actin antibody as control (actin), as shown in FIG. 13C. […] The result above also indicates a more marked decrease in protein level than in RNA level.

CDK4 = test: Western-blot analysis of CDK4 protein in HCT116 cell; conditions: anti-CDK4 antibody, vs control miRNA / mock, FIG. 13C
Excerpt: as §1

SFRS2 = test: Western-blot analysis of SFRS2 protein in HCT116 cell; conditions: anti-SFRS2 antibody, vs control miRNA / mock, FIG. 13C
Excerpt: as §1

[9] = test system: 9 colorectal cancer cell lines (CaCO2, Colo320, DLD1, HCT116, HT29, LoVo, RKO, SW48 and SW480); test: BTG4 expression by RT-PCR in colorectal cancer cell lines treated with DAC; conditions: DAC 2 μM, 72 hours, FIG. 14A
p53-knockout HCT116 cell = test: miR-34b/c expression in p53-knockout HCT116 cell treated with DAC and/or ADR; conditions: HCT116 cell in which p53 gene has been knocked out; DAC 2 μM, 72 hours; ADR 0.5 μg/ml, 24 hours; FIG. 5B
p53 [10] = conditions: HCT116 cell (WT); DAC 2 μM, 72 hours; ADR 0.5 μg/ml, 24 hours; FIG. 5C
p21 [11] = test: Western-blotting of p21 expression in HCT116 cell (WT); conditions: DAC 2 μM, 72 hours, ADR 0.5 μg/ml, 24 hours, FIG. 5C
Excerpt: The expression of β-actin was confirmed as control, and the expression of p21 gene which is known as a representative target of p53 was similarly confirmed.

p53 [12] = conditions: p53-knockout HCT116 cell (p53KO); DAC 2 μM, 72 hours; ADR 0.5 μg/ml, 24 hours; FIG. 5C
p21 [13] = conditions: p53-knockout HCT116 cell (p53KO); DAC 2 μM, 72 hours; ADR 0.5 μg/ml, 24 hours; FIG. 5C
[14] = miRNA by electroporation, RNA after 48 hours, vs control miRNA

Row | Compound | miR-34b/c expression (HCT116 cell [3]) | gene expression patterns (microarray) (HCT116 cell [4]) | mRNA expression level of MET gene [5] | mRNA expression level of CDK4 gene [7] | mRNA expression level of CCNE2 gene (CCNE2 (Cyclin E2) gene) | mRNA expression level of SFRS2 gene [8] | mRNA expression level of MTB gene [6, 14] | also measured
1 | Nc1ncn([C@H]2C[C@H](O)[C@@H](CO)O2)c(=O)n1 [DAC, 5-aza-2′-deoxycytidine] | induction of miR-34b/c expression was observed | also decreased by DAC treatment | decreased | decreased | decreased | decreased | – | expression of miRNAs (expression level of each miRNA/the expression level of U6 snRNA) (HCT116 cell [1]; 157 miRNAs compared, FIG. 2): induced the expression of 37 miRNAs; expression levels of miRNA34b and miR-34c (HCT116 cell [1]; FIG. 3A): restores their expression; expression of miR-34b ([2]; FIG. 4A): induces the expression; expression of miR-34c ([2]; FIG. 4B): induces the expression; mRNA expression level of MTB gene ([6]; […]): decreased; expression level of MET protein (MET): decreased; expression level of CDK4 protein (CDK4): decreased; expression level of SFRS2 protein (SFRS2): decreased; mRNA expression of BTG4 gene [9]: markedly increased (restored)
2 | COc1cccc2c1C(=O)c1c(O)c3c(c(O)c1C2=O)C[C@@](O)(C(=O)CO)C[C@@H]3O[C@H]1C[C@H](N)[C@H](O)[C@H](C)O1 [ADR, adriamycin] | induction of miR-34b/c expression was observed | – | – | – | – | – | – | miR-34b/c expression (p53-knockout HCT116 cell): not at all; p53 expression (protein level) (p53 [10]): induced by ADR treatment; expression of p21 gene, a p53 target (p21 [11]): also induced in similar pattern to that of p53; p53 expression (protein level) (p53 [12]): neither p53 nor p21 was changed at all; p21 expression (p21 [13]): neither p53 nor p21 was changed at all
3 | miR-34b: miR-34b precursor (Ambion); matured type sequence UAGGCAGUGUCAUUAGCUGAUUG (SEQ ID NO: 2) (precursor form, further chemistry not given here) | – | a group of genes whose expression was decreased | decreased | decreased | decreased | decreased | decreased | –
4 | miR-34c: miR-34c precursor (Ambion); matured type sequence AGGCAGUGUAGUUAGCUGAUUGC (SEQ ID NO: 4) (precursor form, further chemistry not given here) | – | a group of genes whose expression was decreased | decreased | decreased | decreased | decreased | decreased | –
